From ChEMBL document CHEMBL5104152, “DNA-encoded library screening on two validated enzymes of the peptidoglycan biosynthetic pathway” (Bioorg Med Chem Lett, 2022) come the findings set out here.

The target of assay [1] is UDP-N-acetylglucosamine 1-carboxyvinyltransferase (Escherichia coli K-12) (UniProt P0A749). Briefly: Inhibition of recombinant Escherichia coli MurA assessed as residual activity at 1 mM using UDP-N-acetylglucosamine as substrate incubated for 15 mins and measured by malachite green based colorimetric assay relative to control.
Assay [2] concerns the target D-alanine--D-alanine ligase B (Escherichia coli K-12) (UniProt P07862). The experiment in a line: Inhibition of recombinant Escherichia coli DdlB assessed as residual activity at 1 mM using D-alanine as substrate incubated for 20 mins and measured by malachite green based colorimetric assay relative to control.
The target of assay [3] is UDP-N-acetylglucosamine 1-carboxyvinyltransferase (Escherichia coli K-12, UniProt P0A749). The experiment in a line: Inhibition of recombinant Escherichia coli MurA using UDP-N-acetylglucosamine as substrate incubated for 15 mins and measured by malachite green based colorimetric assay.
Assay [4] has as its system Escherichia coli. The experiment in a line: Antibacterial activity against Escherichia coli ATCC 25922 incubated for 20 hrs and measured by broth microdilution method. It counts as functional. For orientation: In broth dilution the organism is exposed to a series of concentrations in liquid medium.
The subject of the next assay is Staphylococcus aureus. The experiment in a line: Antibacterial activity against Staphylococcus aureus ATCC 29213 incubated for 20 hrs and measured by broth microdilution method. It counts as functional.
Assay [5] deals with Escherichia coli. Briefly: Antibacterial activity against Escherichia coli N43 incubated for 20 hrs and measured by broth microdilution method. It counts as functional.
For assay [6], the system named is Escherichia coli. Briefly: Antibacterial activity against Escherichia coli D22 incubated for 20 hrs and measured by broth microdilution method. Format: functional.
For assay [7], the target named is D-alanine--D-alanine ligase B (Escherichia coli K-12, UniProt P07862). The experiment in a line: Inhibition of recombinant Escherichia coli DdlB using D-alanine as substrate incubated for 20 mins and measured by malachite green based colorimetric assay.
In assay [8] the target is D-alanine--D-alanine ligase B (Escherichia coli K-12) (UniProt P07862). Briefly: Inhibition of recombinant Escherichia coli DdlB assessed as residual activity at 100 uM using D-alanine as substrate incubated for 20 mins and measured by malachite green based colorimetric assay relative to control.
Assay [9] deals with UDP-N-acetylglucosamine 1-carboxyvinyltransferase (Escherichia coli K-12) (UniProt P0A749). Briefly: Inhibition of recombinant Escherichia coli MurA assessed as residual activity at 0.1 mM using UDP-N-acetylglucosamine as substrate incubated for 15 mins and measured by malachite green based colorimetric assay relative to control.
The target is the same in assay [10]. Briefly: Inhibition of recombinant Escherichia coli MurA assessed as residual activity at 0.5 mM using UDP-N-acetylglucosamine as substrate incubated for 15 mins and measured by malachite green based colorimetric assay relative to control.
Assay [11] deals with D-alanine--D-alanine ligase B (Escherichia coli K-12) (UniProt P07862). The experiment in a line: Inhibition of recombinant Escherichia coli DdlB assessed as residual activity at 20 uM using D-alanine as substrate incubated for 20 mins and measured by malachite green based colorimetric assay relative to control.
Assay [12] has the same target. Briefly: Inhibition of recombinant Escherichia coli DdlB assessed as residual activity at 500 uM using D-alanine as substrate incubated for 20 mins and measured by malachite green based colorimetric assay relative to control.

Chain of UDP-N-acetylglucosamine 1-carboxyvinyltransferase (P0A749 whole entry): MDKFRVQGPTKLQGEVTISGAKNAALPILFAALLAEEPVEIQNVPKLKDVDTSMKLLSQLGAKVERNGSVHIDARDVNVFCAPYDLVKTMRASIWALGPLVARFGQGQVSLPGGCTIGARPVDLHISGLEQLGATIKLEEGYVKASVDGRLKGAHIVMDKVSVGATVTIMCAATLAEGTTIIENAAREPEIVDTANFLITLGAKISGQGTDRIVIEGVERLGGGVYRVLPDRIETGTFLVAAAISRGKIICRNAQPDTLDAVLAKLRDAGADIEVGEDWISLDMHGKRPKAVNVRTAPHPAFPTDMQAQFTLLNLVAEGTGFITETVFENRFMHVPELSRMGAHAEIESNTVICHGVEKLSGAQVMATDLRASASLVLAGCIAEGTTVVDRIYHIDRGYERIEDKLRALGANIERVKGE
Chain of UDP-N-acetylglucosamine 1-carboxyvinyltransferase (Escherichia coli K-12) (P0A749 whole entry): as above

Consider `O=C(O)c1cc(-c2ccco2)nc2ccccc12`, for which the Activity in [1] was found to be 68%.

Regarding `O=C(O)c1cc(-c2ccccc2)nc2ccc(Cl)cc12`, the Activity in [1] amounted to 86.3%.

Turning to `O=C(O)CCc1c[nH]c2ccc(F)cc12`, the Activity in [2] stood at 94.2%.

Regarding `O=C(O)c1cc(-c2ccc(/C=C/c3ccccc3)cc2)nc2ccccc12`, the IC50 in assay [3] came out at 78.3 µM. For the same molecule, the MIC against Escherichia coli [4] is > 128 µg/mL; in the assay with Staphylococcus aureus it was 64 µg/mL; in the assay with Escherichia coli [5] it was > 128 µg/mL; against Escherichia coli [6] it was 32 µg/mL.

`O=C(O)c1cc(-c2ccc3c(c2)OCCO3)nc2ccccc12`: the Activity in assay [1] was 77.3%.

In the case of `CC[C@H](C)[C@@H](CCC(=O)NC)NC(=O)[C@H](Cc1c[nH]c2ccc(F)cc12)NC(=O)[C@H](CCC(C)C)NCc1cnn(C)c1-c1ccc(OC)cc1`, the IC50 in [7] came out at 243 µM. The MIC in the assay on Escherichia coli [4], against Staphylococcus aureus, against Escherichia coli [5] and with Escherichia coli [6] was > 250 µM throughout.

With `CNC(=O)C(N)Cc1c[nH]c2ccccc12` (configuration not stated), the Activity in [1] was determined as 95.3%.

With `CNC(=O)C[C@H](C)NC(=O)c1nsc2ccc(-c3cc(F)cc(F)c3)cc12`, the Activity in [8] stood at 87%.

Regarding `CNC(=O)[C@@H](Cc1cn(C(=O)OC(C)(C)C)c2ccccc12)NCc1ccc(-n2ccnc2)c(-c2ccc(-c3cc(C(=O)O)c4ccccc4n3)cc2)c1`, the IC50 in assay [3] came to 14.1 µM. The minimal inhibitory concentration (MIC) against Escherichia coli [4], in the assay on Staphylococcus aureus, against Escherichia coli [5] and in the assay on Escherichia coli [6] was > 128 µg/mL each time.

As for `NC(Cc1c[nH]c2ccc(F)cc12)C(=O)O` (configuration not stated), in assay [2], the Activity is 92.5%.

Turning to `O=C(O)c1cc(-c2ccc(C3CCCCC3)cc2)nc2ccccc12`, in [9], the Activity was found to be 98.3%.

As to `COC(=O)c1cc(-c2ccccc2)nc2ccccc12`, the Activity in [1] was determined as 92.6%.

Consider `O=C(O)c1cc(-c2ccccc2)nc2c(Cl)cccc12`, for which the Activity in assay [1] turned out to be 95.2%.

On to `Cc1c[nH]c2ccc(F)cc12`, for which the Activity in assay [2] was 108%.

`O=C(O)c1cc(-c2cccc(O)c2)nc2ccccc12`: the Activity in [1] is 72.9%.

As for `CC(=O)Nc1ccc(-c2cc(C(=O)O)c3ccccc3n2)cc1`, the Activity in assay [10] was 82.6%.

On to `COc1ccc(-c2cc[nH]n2)cc1`, for which, in assay [2], the Activity worked out at 92.9%.

Regarding `CNC(=O)[C@H]1CCCC[C@H]1NC(=O)c1nsc2ccc(-c3cc(F)cc(F)c3)cc12`, the Activity in assay [11] was 106%.

Take `CCN(CC)C(=O)c1ccc(-c2cc3nc[nH]c3nc2C(=O)N[C@@H](Cc2ccccc2F)C(=O)NC)cc1`: the Activity in [12] stood at 81%.

Regarding `CNC(=O)[C@@H]1[C@@H](C)OC(C)(C)N1C(=O)[C@@H](NC(=O)c1nsc2ccc(-c3cc(F)cc(F)c3)cc12)C(C)C`, the Activity in assay [11] was 103%.

Consider `O=C(O)c1cc(-c2ccccc2)nc2cc(Cl)ccc12`, for which the Activity in assay [1] was determined as 101%.

On to `O=C(O)c1cc(-c2ccc(Cl)cc2)nc2ccccc12`, for which, in assay [1], the Activity worked out at 79.3%.

For the molecule `O=C(O)c1cc(-c2ccc(-c3ccccc3)cc2)nc2ccccc12`, the IC50 in [3] is 172 µM. Moreover, the MIC was > 128 µg/mL in the assay on Escherichia coli [4], 128 µg/mL against Staphylococcus aureus, > 128 µg/mL against Escherichia coli [5] and 128 µg/mL in the assay on Escherichia coli [6].

`O=C(O)c1cc(-c2ccc(-c3ccc([N+](=O)[O-])cc3)cc2)nc2ccc(Br)cc12`: the Activity in assay [9] stood at 100%.

In the case of `O=C(O)c1cc(-c2ccccc2O)nc2ccccc12`, in assay [1], the Activity stood at 77.5%.

Regarding `CNC(=O)[C@@H](Cc1c[nH]c2ccccc12)NCc1ccc(-n2ccnc2)c(-c2ccc(-c3cc(C(=O)O)c4ccccc4n3)cc2)c1`, the IC50 in assay [3] was found to be 15.5 µM.

For `COc1ccc(-c2[nH]ncc2CN)cc1`, the Activity in assay [2] was 58.6%.

On to `O=C(O)c1cc(-c2cccc(Cl)c2)nc2ccccc12`, for which the Activity in [1] is 82.4%.

On to `O=C(O)c1cc(-c2ccc(O)cc2)nc2ccccc12`, for which the Activity in [1] turned out to be 66.6%.

Consider `O=C(O)c1c(-c2ccccc2)c(-c2ccccc2)nc2ccccc12`, for which the Activity in [1] came to 85.2%.

`O=C(O)c1cc(-c2ccccc2Cl)nc2ccccc12`: the Activity in [1] came to 58.8%.

By IC50 is commonly meant the point on the concentration scale where inhibition reaches its midpoint. What is called MIC is the smallest concentration in the dilution series that meets the test's criterion for growth inhibition. A low value points to inhibition by little substance.
